Test results from patent US20050171053A1, “Carrageenan based antimicrobial compositions” (FMC Corporation, priority 2002, published 2005).
Entries after “also recorded” stand apart in the source; their conditions may differ.

How the values were obtained:
[1] = Diffusion of NES through a dialysis membrane (HPLC); assay type: physicochemical; conditions: molecular weight cutoff 1000, HPLC
From the text: FIG. 10 is a graph of the amount of Nestorone released from a composition containing the carrageenans of the present invention.
We examined diffusion of NES through a dialysis membrane with a molecular weight cutoff of 1000. The molecular weight of NES is 370. […] Results are illustrated in FIG. 10. […] However, the rate of diffusion observed through the dialysis membrane cannot be related to the rate of diffusion that would be observed in the human vagina as the rate of diffusion was dependant on the surface area of the dialysis bag. Conditions in the vagina would be different.
Diffusion of NES from CARRA/NES was investigated by two different methods, membrane dialysis and Ultrafree-15 centrifugation. In the membrane dialysis experiments, the membrane cutoff is 1,000, and diffusion of NES was measured by HPLC. […] In the Ultrafree-15 centrifugation experiments, a Millipore, Ultrafree-15 centrifugal filter and tube assembly was employed, which allows the passage of molecules of a MW<500 pass through; NES MW is 370.

[2] = tested on: progestational potency; conditions: cited from earlier work
[3] = tested on: androgenic, estrogenic and glucocorticoid-like (hepatic glycogen deposition) activity; conditions: cited from earlier work
[4] = in vivo; cited from earlier work
[5] = in vivo, po; cited from earlier work
[6] = in vivo, po; cited from earlier work; remark: listed apart in the source
[7] = tested on: HSV-2; test: HSV-2/mouse system, formulations with and without LSA; assay type: in vivo, mice; conditions: for effect of addition to the K-II/λ carrageenan composition on efficacy against HSV-2 infection in mice: 5% added
Method: LSA-carrageenan was compared to carrageenan in the HSV-2/mouse system in order to determine efficacy in blocking viral infection in vivo.
Each formulation is initially tested in a total of 20 mice. Compounds or formulations that show a blocking effect are assayed again in another 20 mice.
Subsequently, LSA was assayed without Carrageenan to better evaluate its inhibitory properties. LSA was added to the inert thickener, methylcellulose, to maintain the same viscosity that vaginal products (lubricants, spermicides, and microbicides) generally have. (Data shown below.)

[8] = tested on: HIV; test: Protection of epithelial cells in vitro against HIV infection; assay type: cell-based
From the text: FIG. 5 is a plot of the percent inhibition by LSA of viral replication as measured by p24 ELISA.
(§1) LSA is effective as a microbicide against HSV-2 infection, HIV, and other STI's, with or without carrageenan. […] The inhibitory effect may be observed with other enveloped viruses such as the human pathogen, human T cell leukemia virus. In addition, epithelial cells are protected against the human papillomavirus, which is not an enveloped virus. The inhibitory efficaciousness of LSA may thus extend to a broader range of STI's.

[9] = tested on: human papillomavirus; test: Protection of epithelial cells against human papillomavirus; assay type: cell-based
From the text: as §1

With `C=C1C[C@H]2[C@@H]3CCC4=CC(=O)CC[C@@H]4[C@H]3CC[C@]2(C)[C@@]1(OC(C)=O)C(C)=O` [NES, 16-methylene-17α-acetoxy-19-norpregn-4-ene-3,20-dione] as the compound, how does the “diffusion of NES through dialysis membrane” value [1] read?
The value was “diffused from the dialysis bag at a constant rate”.

And the “progestational activity relative to levonorgestrel” value [2]?
Its value is 10 times.

And the “progestational activity relative to progesterone” value [2]?
The value was 100 times.

What about the “androgenic, estrogenic and glucocorticoid-like activity” value [3] of the same compound?
Its value is “lack of androgenic, estrogenic and glucocorticoid-like”.

And the “metabolism upon oral administration” value [4]?
The value was “rapid metabolism and inactivation”.

With carrageenan as the compound, how does the toxicity [5] read?
Its toxicity is “non-toxic”.

And the absorption [6]?
The absorption was “virtually non-existent”.

And the “breakdown in the gastrointestinal tract” value [6]?
Its value is “minimal at best”.

With dextran sulfate as the compound, how does the “effect of addition to the K-II/λ carrageenan composition on efficacy against HSV-2 infection in mice” value [7] read?
The value was “had no effect on efficacy”.

For heparin, which “effect of addition to the K-II/λ carrageenan composition on efficacy against HSV-2 infection in mice” value [7] is on record?
Its value is “had no effect on efficacy”.

Which “effectiveness of LSA” value ([7]; concentration of 0.25%) does the source give for lignosulfonic acid [LSA] here?
Its value is “highly effective”.

And the “blocking of HSV-2 infection in mice by LSA without carrageenan” value ([7]; mouse, in vivo)?
Its value is “more effective than carrageenan; also recorded: effective in protecting”.

What about the “protection of epithelial cells against HIV infection” value [8] of the same compound?
Its value is “effective in protecting”.

What about the “protection of epithelial cells against human papillomavirus” value [9] of the same compound?
Its value is “protected”.
